Where two headings read alike, the source gives them in different places.
How the values were obtained:
[1] = biological target: Cys242 in human PIK3CA (157-299) (Homo sapiens (Human), UniProt P42336); assay: Covalent modification assay using MALDI-TOF MS; type: biochemical; settings: 4 h reaction time point; 3.33 μM protein target, 1:7.5 protein to compound ratio (compounds 1-852)
In short: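 PIK3CA (157-299) at 3.33 μM or 1 μM in 20 mM HEPES, 150 mM NaCl, 2 mM MgCl2, pH 7.3 was incubated with compound (from 10 mM DMSO stocks) in the dark at room temperature for 15 min, 30 min, 2 h or 4 h. Linear-mode MALDI-TOF peak heights gave percent modification.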

[2] = system: pAKT in BT474 cells; assay: Cell-based pAKT HTRF assay in BT474 cells; settings: BT474 cells, 4 hr incubation, Compounds 10-999, read-out: pAKT inhibition IC50 in BT474 cells
In short: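 Treatment lasts 4 hr in DMEM/10% FBS at 0.25% DMSO over nine 3-fold dilutions from 3 μM. The lysate is then probed by HTRF.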

Cys242 in human PIK3CA (157-299), sequence (P42336 157-299): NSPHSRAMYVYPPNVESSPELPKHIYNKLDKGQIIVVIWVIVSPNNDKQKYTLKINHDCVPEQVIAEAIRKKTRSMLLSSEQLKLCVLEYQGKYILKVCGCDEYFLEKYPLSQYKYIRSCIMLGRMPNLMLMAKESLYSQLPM

| Structure (SMILES) | % of modification [1] | IC50 [2] [nM] | IC50 ([2]; Homo sapiens, BT-474) [nM] |
| --- | --- | --- | --- |
| C=CC(=O)N1Cc2cc(-c3nc(-c4ccc5nn(C)cc5c4)c4ccsc4c3-c3c(F)cc(F)cc3OC[C@@H](C)O)nn2[C@@H](C)C1 [Compound 572, 1-((S)-2-((S)-7-(2,4-difluoro-6-((R)-2-hydroxypropoxy)phenyl)-4-(2-methyl-2H-indazol-5-yl)thieno[3,2-c]pyridin-6-yl)-7-methyl-6,7-dihydropyrazolo[1,5-a]pyrazin-5(4H)-yl)prop-2-en-1-one] | A (percent of modification of PIK3CA protein ≥75%) | < 100 |  |
| C=CC(=O)N1CCc2cc(-c3nc(-c4ccc5ncn(C)c5c4)c4ccsc4c3-c3c(F)cc(F)cc3OC(C)C)nn2CC1 [Compound 573] | A (percent of modification of PIK3CA protein ≥75%) | < 100 |  |
| C=CC(=O)N1CCn2nc(-c3nc(-c4cnn(C)c4)c4c(c3-c3ccc(F)cc3OC)C(F)CC4)cc2C1 (centres unmarked) [Compound 574, 1-(2-(5-fluoro-4-(4-fluoro-2-methoxyphenyl)-1-(1-methyl-1H-pyrazol-4-yl)-6,7-dihydro-5H-cyclopenta[c]pyridin-3-yl)-6,7-dihydropyrazolo[1,5-a]pyrazin-5(4H)-yl)prop-2-en-1-one] | A (percent of modification of PIK3CA protein ≥75%) |  | < 100 |
| C=C(F)C(=O)N1Cc2cc(-c3nc(-c4ccc5c(c4)CCN(C)C5)c4ccsc4c3-c3c(F)cc(F)cc3OC[C@@H](C)O)nn2C[C@H]1C [Compound 575] | D (percent of modification <25%) | 100 to 1000 |  |
| C=CC(=O)N1Cc2cc(-c3nc(-c4cnn(C)c4)c4ccsc4c3-c3c(F)cc(F)cc3OCCOC)nn2C[C@H]1C [Compound 577] | A (percent of modification of PIK3CA protein ≥75%) | < 100 |  |
| C=CC(=O)N1Cc2cc(-c3nc(-c4cnn(C)c4)c4ccsc4c3-c3c(F)cc(F)cc3OCCOC)nn2C[C@H]1C [Compound 578] | D (percent of modification <25%) | 1000 to 3000 |  |
| C=CC(=O)N1CCc2ccc(-c3nc(-c4cnc5c(c4)CNC(=O)C5)c4ccsc4c3-c3c(F)cc(F)cc3OCCOC)cc2C1 [Compound 579, (R)-3-(6-(2-acryloyl-1,2,3,4-tetrahydroisoquinolin-7-yl)-7-(2,4-difluoro-6-(2-methoxyethoxy)phenyl)thieno[3,2-c]pyridin-4-yl)-5,8-dihydro-1,6-naphthyridin-7(6H)-one] | D (percent of modification <25%) | 1000 to 3000 |  |
| C=CC(=O)N1CCc2ccc(-c3nc(-c4cnc5c(c4)CNC(=O)C5)c4ccsc4c3-c3c(F)cc(F)cc3OCCOC)cc2C1 [Compound 580, (S)-3-(6-(2-acryloyl-1,2,3,4-tetrahydroisoquinolin-7-yl)-7-(2,4-difluoro-6-(2-methoxyethoxy)phenyl)thieno[3,2-c]pyridin-4-yl)-5,8-dihydro-1,6-naphthyridin-7(6H)-one] | A (percent of modification of PIK3CA protein ≥75%) | < 100 |  |
| C=CC(=O)N1Cc2cc(-c3nc(-c4cnn(C)c4)c4ccsc4c3-c3c(F)cc(F)cc3OC[C@@H](C)O)nn2[C@@H](C)C1 [Compound 581] | D (percent of modification <25%) | 100 to 1000 |  |
| C=CC(=O)N1Cc2cc(-c3nc(-c4cnn(C)c4)c4ccsc4c3-c3c(F)cc(F)cc3OC[C@@H](C)O)nn2[C@@H](C)C1 [Compound 582] | A (percent of modification of PIK3CA protein ≥75%) | < 100 |  |
| C=CC(=O)N1C[C@H](C)n2nc(-c3nc(-c4cnn(C)c4)c4ccsc4c3-c3c(F)cc(F)cc3OCCOC)cc2[C@H]1C [Compound 583] | A (percent of modification of PIK3CA protein ≥75%) | < 100 |  |
| C=CC(=O)N1CCn2nc(-c3nc(-c4cnn(C)c4)c4ccsc4c3-c3c(F)cc(F)cc3OCCOC)cc2[C@H]1C [Compound 584] | A (percent of modification of PIK3CA protein ≥75%) | < 100 |  |
| C=CC(=O)N1Cc2cc(-c3nc(-c4ccc5c(c4)CCN(C)C5)c4ccsc4c3-c3c(F)cc(F)cc3OC[C@@H](C)O)nn2[C@@H](C)C1 [Compound 589] | D (percent of modification <25%) | < 100 |  |

— patent US20250230138A1, “COMPOUNDS HAVING A T-STRUCTURE FORMED BY AT LEAST FOUR CYCLES FOR USE IN THE TREATMENT OF CANCER AND OTHER INDICATIONS” (TheRas, Inc., priority 2022, published 2025)
